Experimental data taken from US9029574B2, “Bicyclic compound and use thereof for medical purposes” (Ono Pharmaceutical Co., Ltd., priority 2011, dated 2015).

Legend:
Format in all cases: in vivo
male dog (TOYO Beagle) = experiment: Intraocular pressure lowering action in dog after ocular instillation; settings: for Maximum of intraocular pressure lowering rate (%): ocular instillation 30 μL, maximum among 2, 4, 6, 8 and 24 hours; for intraocular pressure lowering action as compared with latanoprost: ocular instillation, in words
Experimental: As can be easily understood by a person skilled in the art, in an in vivo test, since regarding all test compounds, carboxylic acid which is an active body has bad corneal permeability, pharmacological action of the active body was assessed by ocular instillation administration of a compound which had been converted into an ester such as a methyl ester, an ethyl ester, an isopropyl ester etc. In addition, in a group of the compound of the present inventions, by ocular instillation administration of the ester body in an experimental animal (rabbit, dog etc.) by which pharmacological action is confirmed below and, thereafter, measurement of a drug concentration of carboxylic acid in an aqueous humor, it was confirmed that the ester is rapidly converted into corresponding carboxylic acid.
(2-1) Intraocular Pressure Lowering Action
To one eye of a male dog (TOYO Beagle) which had been sufficiently acclimated in advance, 30 μL of each test compound (the compound of Example 16 (35), the compound of Example 16 (3) and the compound of Example 16 (25)) which had been adjusted with a base (containing citrate buffer pH 6.5, 0.5% polysorbate 80, 1% propylene glycol, […]), was ocular-instilled respectively. The other eye was not treated. As a positive control compound, latanoprost which is the known compound was used.
Thereafter, an ocular surface anesthetic (Benoxil eye drops 0.4%, Santen Pharmaceutical Co., Ltd.) was subjected to ocular instillation to locally anesthetize eyes, and an intraocular pressure of each test compound before ocular instillation and after 2, 4, 6, 8, and 24 hours from ocular instillation was measured. An intraocular pressure was measured using a pneumatic applanation flat tonometer (Model 30 Classic, REICHERT). An intraocular pressure lowering rate (%) was calculated by the following equation.

[1] = test system: male rabbit (NewZealandWhite); experiment: Aqueous humor protein concentration in rabbit after ocular instillation; settings: ocular instillation 30 μL of 0.1% (w/v), aqueous humor collected 0 to 8 hours
Experimental: (2-2) Assessment of Ocular Stimulating Property and Aqueous Humor Protein Concentration
To one eye of a male rabbit (NewZealandWhite, 2.0 to 3.0 kg), 30 μL of the compound of Example 16 (35), the compound of Example 16 (3) and the compound of Example 16 (25) which had been adjusted to 0.1% (w/v) with a base (containing citrate buffer pH 6.5, 0.5% polysorbate 80, 1% propylene glycol, 0.01% benzalkonium chloride), was ocular-instilled respectively. Thereafter, an aqueous humor in anterior chamber after 0, 1, 2, 4, 6 and 8 hours from ocular instillation was collected, and a protein concentration in the humor was measured. As a comparative compound, the aforementioned methyl ester of the compound of Example 12 described in Patent Literature 2 (i.e. compound of Example 10 described in Patent Literature 2) (hereinafter, abbreviated as Comparative Compound B in some cases) was used.
Regarding any test compound, a dose until a dissolution limit (150 to 1000 μg/mL) was administered and action of each active body was assessed.

[2] = test system: male monkey (crab-eating monkey); experiment: Intraocular pressure lowering action in monkey under consciousness; settings: ocular instillation 30 μL, 10 μg/mL; for Maximum intraocular pressure lowering rate (%): maximum up to 24 hours
Experimental: (2-3) Intraocular Pressure Lowering Action in Monkey Under Consciousness
To a left eye of a male monkey (crab-eating monkey) under consciousness, 30 μL of a solution obtained by adjusting a test substance with using the same base as that described above was ocular instillation-administered and, to a right eye, 30 μL of a solution of only a base as a control was ocular instillation-administered, respectively. An intraocular pressure after administration was measured with time from administration initiation until 24 hours. In case of measurement of an intraocular pressure, a crab-eating monkey was fixed on a monkey chair, and the monkey was anesthetized by ocular instillation-administering an ocular surface anesthetic (Benoxil eye drops 0.4% Santen Pharmaceutical Co., Ltd.). After mounting of a blepharostat (Handaya Co., Ltd.), an intraocular pressure of both eyes was measured (5 to 8 examples per group) with using a pneumatic applanation flat tonometer (Model 30 Classic, REICHERT). A difference in an intraocular pressure value between control eyes and eyes to which a test substance had been administered, was calculated as an intraocular pressure lowering rate with using the following equation, and sustainability of intraocular eye lowering action was assessed using a maximum intraocular pressure lowering rate during measurement and an intraocular pressure lowering rate after 24 hours. As the test substance, the Comparative Compound B, and the compounds of Example 16 (3), Example 16 (25) and Example 16 (35) were used, and an administration dose was 10 μg/mL in all cases.

SMILES | Maximum of intraocular pressure lowering rate (%) (male dog (TOYO Beagle); administration dose 50 μg/mL) | Maximum of intraocular pressure lowering rate (%) (male dog (TOYO Beagle); administration dose 10 μg/mL) | intraocular pressure lowering action as compared with latanoprost (male dog (TOYO Beagle)) | action of raising a protein concentration in an aqueous humor [1] | Intraocular pressure lowering rate (%) after 24 hours [2] [%] | Maximum intraocular pressure lowering rate (%) [2] [%]
CC(C)OC(=O)CCC/C=C\C[C@@H]1[C@@H](CC[C@@H](O)CCc2ccccc2)[C@H](O)C[C@@H]1O [Latanoprost, latanoprost, reference compound] | 25.4 |  |  |  |  | 
CC(C)OC(=O)CCC[C@H]1CC[C@@H]2[C@@H](/C=C/[C@@H](O)COc3cccc(Cl)c3)[C@H](O)C[C@@H]2OC1 [Example 16 (3), 2-Propanyl 4-{(3S,5aR,6R,7R,8aS)-6-[(1E,3R)-4-(3-chlorophenoxy)-3-hydroxy-1-buten-1-yl]-7-hydroxyoctahydro-2H-cyclopenta[b]oxepin-3-yl}butanoate] |  | 35.7 | stronger intraocular pressure lowering action | no action of raising a protein concentration in an aqueous humor | 15.1 ± 2.0 | 28.8 ± 2.2
CCOC(=O)CCC[C@H]1CC[C@@H]2[C@@H](/C=C/[C@@H](O)COc3ccccc3)[C@H](O)C[C@@H]2OC1 [Example 16 (35), Ethyl 4-{(3S,5aR,6R,7R,8aS)-7-hydroxy-6-[(1E,3R)-3-hydroxy-4-phenoxy-1-buten-1-yl]octahydro-2H-cyclopenta[b]oxepin-3-yl}butanoate] |  | 31 | stronger intraocular pressure lowering action | no action of raising a protein concentration in an aqueous humor | 14.9 ± 4.7 | 19.2 ± 2.6
CC(C)OC(=O)CCC[C@H]1CC[C@@H]2[C@@H](/C=C/[C@@H](O)COc3cc(F)ccc3F)[C@H](O)C[C@@H]2OC1 [Example 16 (25), 2-Propanyl 4-{(3S,5aR,6R,7R,8aS)-6-[(1E,3R)-4-(2,5-difluorophenoxy)-3-hydroxy-1-buten-1-yl]-7-hydroxyoctahydro-2H-cyclopenta[b]oxepin-3-yl}butanoate] |  | 40.6 | stronger intraocular pressure lowering action | no action of raising a protein concentration in an aqueous humor | 17.5 ± 2.1 | 26.5 ± 1.7
